Laboratory results reported in PubChem BioAssay (NCI).
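Assay format: 96-well plates, 48-hour exposure. GI50: concentration for 50% inhibition of growth. TGI denotes the concentration required for complete inhibition of growth.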

Test system: MDA-MB-468 breast
Assay: inhibition of tumour cell growth, NCI panel, 48 h

| Compound | GI50 [µM] | TGI [µM] |
| --- | --- | --- |
| COc1ccc(NC2=C(Cl)C(=O)C(C)=C(C)C2=O)cc1 | 1.29 | 2.75 |
| CN1CCN(c2nc(-c3csc(-c4cccs4)n3)cc3ccccc23)CC1 | 1.69 | 3.39 |
| NC(CSSCC(N)C(=O)O)C(=O)O (centres undefined) | > 100 | > 100 |
| Cc1[nH]c2cc(F)ccc2c1-c1nc2c3cccnc3c3ncccc3c2[nH]1 | 0.0273 | 0.0828 |
| CC1=C2C(=C[C@@](C)(COC(=O)c3ccc(S(=O)(=O)F)cc3)[C@@H]2O)C(=O)[C@](C)(O)C12CC2 | 0.53 | 2.17 |
| O=C1/C(=C/c2ccc(O)cc2)COc2ccc(O)c(O)c21 | 1.99 | 5.69 |
| CCCCNc1ccc(Nc2ccccc2)cc1 | 1.81 | 9.42 |
